The source of these data is patent US6410552B1, “Benzoether and related compositions and methods” (Ortho-McNeil Pharmaceutical, Inc., priority 2000, dated 2002).

As usually defined, the IC50 is the midpoint of a concentration-inhibition curve.

The target of the experiment is T1, calcium channel (Oryctolagus cuniculus, UniProt P15381).
T1 construct: from tissue; host or cells: rabbit heart membranes
T1 sequence (P15381 whole entry, other chains not shown): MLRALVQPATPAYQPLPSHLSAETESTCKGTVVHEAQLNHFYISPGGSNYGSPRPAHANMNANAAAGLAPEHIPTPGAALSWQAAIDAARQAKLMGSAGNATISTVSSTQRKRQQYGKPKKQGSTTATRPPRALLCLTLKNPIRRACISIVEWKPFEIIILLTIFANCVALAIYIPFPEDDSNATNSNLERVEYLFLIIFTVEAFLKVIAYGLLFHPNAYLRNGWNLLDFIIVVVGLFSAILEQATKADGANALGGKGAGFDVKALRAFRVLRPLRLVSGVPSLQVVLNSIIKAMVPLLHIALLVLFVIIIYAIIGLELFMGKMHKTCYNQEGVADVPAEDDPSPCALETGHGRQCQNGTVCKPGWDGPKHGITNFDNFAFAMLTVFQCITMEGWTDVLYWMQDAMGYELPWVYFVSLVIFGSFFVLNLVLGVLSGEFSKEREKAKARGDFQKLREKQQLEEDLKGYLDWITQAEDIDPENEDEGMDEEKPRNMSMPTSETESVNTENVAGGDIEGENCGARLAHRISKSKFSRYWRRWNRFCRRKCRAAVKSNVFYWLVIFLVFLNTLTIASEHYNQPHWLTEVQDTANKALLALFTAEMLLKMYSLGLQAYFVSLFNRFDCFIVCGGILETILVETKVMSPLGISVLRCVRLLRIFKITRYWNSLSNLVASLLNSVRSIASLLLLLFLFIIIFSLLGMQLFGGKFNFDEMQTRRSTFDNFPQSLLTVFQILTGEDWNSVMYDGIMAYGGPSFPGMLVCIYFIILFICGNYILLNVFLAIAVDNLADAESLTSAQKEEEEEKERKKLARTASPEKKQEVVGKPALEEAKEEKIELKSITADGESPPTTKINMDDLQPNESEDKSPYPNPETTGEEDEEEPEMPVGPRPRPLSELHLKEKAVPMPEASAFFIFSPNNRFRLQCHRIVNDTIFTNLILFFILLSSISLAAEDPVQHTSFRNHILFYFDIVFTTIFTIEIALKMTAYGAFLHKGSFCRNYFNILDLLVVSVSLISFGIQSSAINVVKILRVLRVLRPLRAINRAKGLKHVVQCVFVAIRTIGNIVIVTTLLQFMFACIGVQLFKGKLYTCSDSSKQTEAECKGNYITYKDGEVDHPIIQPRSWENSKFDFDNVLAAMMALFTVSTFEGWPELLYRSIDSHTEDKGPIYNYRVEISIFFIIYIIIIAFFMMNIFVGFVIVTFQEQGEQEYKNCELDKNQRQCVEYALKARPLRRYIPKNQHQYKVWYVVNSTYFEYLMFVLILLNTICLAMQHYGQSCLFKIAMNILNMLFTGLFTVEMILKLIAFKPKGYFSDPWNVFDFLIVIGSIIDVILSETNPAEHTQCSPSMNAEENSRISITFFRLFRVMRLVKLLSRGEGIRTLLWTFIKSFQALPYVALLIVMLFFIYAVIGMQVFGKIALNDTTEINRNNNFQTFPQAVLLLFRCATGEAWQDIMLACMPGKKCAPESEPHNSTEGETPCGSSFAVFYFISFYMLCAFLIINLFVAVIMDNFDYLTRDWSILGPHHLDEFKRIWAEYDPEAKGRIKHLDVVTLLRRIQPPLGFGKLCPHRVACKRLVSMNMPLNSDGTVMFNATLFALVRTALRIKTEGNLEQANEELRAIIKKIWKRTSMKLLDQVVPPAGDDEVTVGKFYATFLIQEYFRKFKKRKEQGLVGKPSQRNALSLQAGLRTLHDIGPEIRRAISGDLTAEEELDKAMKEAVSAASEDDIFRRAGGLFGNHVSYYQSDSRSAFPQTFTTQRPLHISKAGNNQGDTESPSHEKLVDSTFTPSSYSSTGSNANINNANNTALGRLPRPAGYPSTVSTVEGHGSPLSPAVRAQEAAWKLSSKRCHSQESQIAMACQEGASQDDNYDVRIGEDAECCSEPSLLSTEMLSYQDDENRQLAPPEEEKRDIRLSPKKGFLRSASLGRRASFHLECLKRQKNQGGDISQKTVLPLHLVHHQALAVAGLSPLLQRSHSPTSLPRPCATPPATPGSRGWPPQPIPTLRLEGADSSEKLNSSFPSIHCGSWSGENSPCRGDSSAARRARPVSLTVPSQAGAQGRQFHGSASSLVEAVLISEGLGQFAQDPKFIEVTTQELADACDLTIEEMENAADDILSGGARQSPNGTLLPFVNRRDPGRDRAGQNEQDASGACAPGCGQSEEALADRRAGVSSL
T1 sequence (P13806 27-960 partner limits assumed, other chains not shown): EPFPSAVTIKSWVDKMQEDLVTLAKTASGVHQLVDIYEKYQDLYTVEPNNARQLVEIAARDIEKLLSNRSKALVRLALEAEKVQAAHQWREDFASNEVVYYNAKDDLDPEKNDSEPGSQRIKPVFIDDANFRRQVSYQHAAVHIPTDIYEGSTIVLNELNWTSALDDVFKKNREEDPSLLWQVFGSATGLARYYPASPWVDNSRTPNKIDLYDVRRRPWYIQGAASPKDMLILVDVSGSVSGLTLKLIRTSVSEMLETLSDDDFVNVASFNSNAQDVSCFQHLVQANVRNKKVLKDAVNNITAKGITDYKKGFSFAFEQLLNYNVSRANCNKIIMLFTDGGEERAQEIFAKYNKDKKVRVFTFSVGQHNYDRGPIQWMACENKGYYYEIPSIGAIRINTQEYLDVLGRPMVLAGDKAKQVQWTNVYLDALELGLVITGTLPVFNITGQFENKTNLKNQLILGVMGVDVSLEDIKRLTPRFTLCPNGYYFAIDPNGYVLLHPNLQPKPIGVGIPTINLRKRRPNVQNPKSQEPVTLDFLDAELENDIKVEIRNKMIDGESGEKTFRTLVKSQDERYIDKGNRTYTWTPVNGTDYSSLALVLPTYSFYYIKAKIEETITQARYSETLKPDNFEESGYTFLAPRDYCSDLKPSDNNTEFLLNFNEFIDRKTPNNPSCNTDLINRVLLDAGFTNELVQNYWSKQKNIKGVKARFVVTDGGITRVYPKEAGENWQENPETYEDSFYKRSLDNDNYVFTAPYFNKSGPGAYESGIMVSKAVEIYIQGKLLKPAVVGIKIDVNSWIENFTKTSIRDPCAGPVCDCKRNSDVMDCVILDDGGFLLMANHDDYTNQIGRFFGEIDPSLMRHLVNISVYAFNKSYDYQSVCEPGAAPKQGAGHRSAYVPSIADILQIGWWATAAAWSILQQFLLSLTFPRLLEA
T1 sequence (P13806 961-1106 partner limits assumed, other chains not shown): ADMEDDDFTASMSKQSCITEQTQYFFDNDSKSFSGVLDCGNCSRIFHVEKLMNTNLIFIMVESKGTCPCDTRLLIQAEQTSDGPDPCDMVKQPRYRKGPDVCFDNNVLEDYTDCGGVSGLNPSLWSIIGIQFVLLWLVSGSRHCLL
Description: Assay for Inhibition of Nitrendipine Binding (3H-nitrendipine, heart membranes). The conditions noted are these: displacement of 3H-nitrendipine (0.05-0.50 nM) from rabbit heart membranes, 90 minutes at 4° C. How it is done: Female, New Zealand white rabbits (1-2 kg) are sacrificed by cervical dislocation, and the heart is immediately removed, cleaned and chopped into small pieces. The tissue is homogenized in 5×times volume of 0.05M Hepes buffer, pH 7.4. The homogenate is centrifuged at 4000 g for 10 minutes, and the supernatant is re-centrifuged at 42,000×g for 90 minutes. The resulting membrane pellet is resuspended (0.7 ml/g weight) in 0.05M Hepes, pH 7.4 and stored at […] until used. Each tube of the binding assay contains ^3H-nitrendipine (0.05-0.50 nM), buffer, membranes (0.10 ml), and test compound in a total volume of 1.0 ml. After 90 minutes at 4° C., the bound nitrendipine is separated from the unbound by filtration on Whatman GF/C filters. After rinsing, the filters are dried and counted in a liquid scintillation counter.
Non-specific binding of ^3H-nitrendipine (that amount bound in the presence of excess unlabelled nitrendipine) is subtracted from the total bound to obtain specifically bound radiolabeled nitrendipine. The amount of specifically bound nitrendipine in the presence of a test compound is compared to that amount bound in the absence of a compound. A percent displacement (or inhibition) can then be calculated.
For the compound `COC(=O)C1=C(C)NC2=C(C1c1ccccc1Cl)S(=O)(=O)c1ccccc1OC2` (stereo not shown) [Compound 1, 1H-[1,5]Benzoxathiepino[3,4-b]pyridine-3-carboxylic acid, 4-(2-chlorophenyl)-4,11-dihydro-2-methyl-, methyl ester, 5,5-dioxide], the IC50 was 61 nM.

`CC1=C(C(=O)OCCN(C)Cc2ccccc2)C(c2ccccc2Cl)C2=C(COc3ccccc3S2(=O)=O)N1` (stereo not shown) [Compound 2, 1H-[1,5]Benzoxathiepino[3,4-b]pyridine-3-carboxylic acid, 4-(2-chlorophenyl)-4,11-dihydro-2-methyl-, 2-[methyl(phenylmethyl)amino]ethyl ester, 5,5-dioxide]: the IC50 came out at 59 nM.

As for `COC(=O)C1=C(C)NC2=C(C1c1cccc([N+](=O)[O-])c1)S(=O)(=O)c1ccccc1OC2` (stereo not shown) [Compound 3, 1H-[1,5]Benzoxathiepino[3,4-b]pyridine-3-carboxylic acid, 4,11-dihydro-2-methyl-4-(3-nitrophenyl)-, methyl ester, 5,5-dioxide], the IC50 came to 33 nM.

For the compound `CC1=C(C(=O)OCCN(C)Cc2ccccc2)C(c2cccc([N+](=O)[O-])c2)C2=C(COc3ccccc3S2(=O)=O)N1` (stereo not shown) [Compound 4, 1H-[1,5]Benzoxathiepino[3,4-b]pyridine-3-carboxylic acid, 4,11-dihydro-2-methyl-4-(3-nitrophenyl)-, 2-[methyl(phenylmethyl)amino]ethyl ester, 5,5-dioxide], the IC50 came out at 45 nM.

Turning to `CC1=C(C(=O)OCCN(C)Cc2ccccc2)C(c2cccc(Cl)c2)C2=C(COc3ccccc3S2(=O)=O)N1` (stereo not shown) [Compound 5, 1H-[1,5]Benzoxathiepino[3,4-b]pyridine-3-carboxylic acid, 4-(3-chlorophenyl)-4,11-dihydro-2-methyl-, 2-[methyl(phenylmethyl)amino]ethyl ester, 5,5-dioxide], the half-maximal inhibitory concentration (IC50) came out at 109 nM.

As for `CC1=C(C(=O)OCCN(C)Cc2ccccc2)C(c2cccc(Cl)c2Cl)C2=C(COc3ccccc3S2(=O)=O)N1` (stereo not shown) [Compound 6, 1H-[1,5]Benzoxathiepino[3,4-b]pyridine-3-carboxylic acid, 4-(2,3-dichlorophenyl)4,11-dihydro-2-methyl-, 2-[methyl(phenylmethyl)amino]ethyl ester, 5,5-dioxide], the IC50 is 21 nM.

As to `CC1=C(C(=O)OCCN(C)Cc2ccccc2)C(c2c(F)cccc2Cl)C2=C(COc3ccccc3S2(=O)=O)N1` (stereo not shown) [Compound 7, 1H-[1,5]Benzoxathiepino[3,4-b]pyridine-3-carboxylic acid, 4-(2-chloro-6-fluorophenyl)-4,11-dihydro-2-methyl-, 2-[methyl(phenylmethyl)amino]ethyl ester, 5,5-dioxide], the 50% inhibitory concentration (IC50) was 47 nM.
